In brackets after ≈: the same amount, converted by molar mass.

In one assay the test system is P. aeruginosa. Briefly: Biofilm growth assay (spreading biofilm on semi-solid agar). Conditions: Pseudomonas aeruginosa; Table 3; concentration that reduces the area of the spreading biofilm by >= 85%; read-out: P. aeruginosa. The class given is cell-based. An excerpt:
(§1) "Biofilm Growth Assay" refers to an assay performed on semi-solid agar surface where the bacteria collectively move out from an inoculation point. To those skilled in the art, the act of bacteria collectively moving out from an inoculation point on a semi-solid surface may be referred to as swarming or a spreading biofilm. (Anderson, et al Microbiology, 2003, 149, 37-46; Daniels, et al. FEMS Microbiology Reviews, 2004, 28, 261-289). The procedure to perform this assay is described in detail in the Examples. This type of surface motility by bacteria has been reported in the literature by those skilled in the art.
(§2) The biofilm growth assay was carried out to measure swarming or biofilm spreading on semi-solid agar media in round plates (for example, 100 × 15 mm), also referred to as Petri dishes. For E. coli, the plates contained LB medium with 0.6% agar and 0.5% glucose. P. aeruginosa plates were made with M8 agar supplemented with 0.2% glucose, 100 µM CaCl2, 1 mM MgSO4, and 0.5% Casamino acids. The agar plates of this assay consisted of 0.4% to 0.7% agar (Bacto or Noble agar), although other media may also be used as described in the literature and known to those skilled in the art. Test compounds at the desired concentration were added to the cooled, autoclaved media. Portions of the media were then poured into the plates (20 mL/plate), and the plates allowed to dry at room temperature for approximately 3 to 4 hours. Alternatively, however, plates may be dried in a laminar flow hood for approximately fifteen to twenty minutes. Overnight cultures were grown in a 37°C shaker in LB (E. coli) or TSB (P. aeruginosa). Plates were inoculated by placing 5 µL of the appropriate overnight culture in the centers of the plates. The plates then were incubated overnight at 37°C. The area of the zone of spreading bacteria was then measured and replicates are averaged. Percent inhibition was calculated as 100 × (area without compound - area with compound)/(area without compound). An active compound was considered that which reduces the area of the spreading biofilm compared to negative controls by greater than or equal to 85%. The values shown in Table 1 are the concentrations of compounds (µg/ml) tested in the biofilm growth assay that reduce the area of the spreading biofilm compared to negative controls by greater than or equal to 85% unless noted differently in Table 1. A > ("greater than" symbol) as used in Table 1 is well understood to those skilled in the art as an indication that the listed concentration was not effective at this concentration.
(§3) All of the compounds shown in Tables 2, 3, 4, and 5, below, were prepared semi-synthetically from oleanolic acid, except for Compounds 2 and 3. Compound 2 was prepared from ursolic acid. Compound 3 was prepared from hederagenin, but could also be prepared from an oleanolic acid analog with a hydroxyl at C23 or C24. These compounds were tested in the spreading biofilm assay according to the methods detailed in Example I, above. The values shown in Tables 2, 3, 4, and 5 are the concentrations of compounds tested in the biofilm growth assay that reduce the area of the spreading biofilm compared to negative controls by greater than or equal to 85%. Table 2. Compound 1 and its Analogs and their inhibitory concentrations in the biofilm growth assay as detailed in Example I, above

Another assay has as its system E. coli. The assay is described as above. In kind it is cell-based. The following applies: Escherichia coli; Table 3; concentration that reduces the area of the spreading biofilm by >= 85%; read-out: E. coli.
Text: as §1, §2, §3

As to `CC1(C)CC[C@]2(C(=O)O)CC[C@]3(C)C(=C(c4cn[nH]c4)CC4[C@@]5(C)Cc6c(n[nH]c6N)C(C)(C)[C@@H]5CC[C@]43C)[C@@H]2C1` (stereo partly drawn) [Compound 27, (4aS,6aS,6bR,8aR,13aR,15bS)-12-Amino-2,2,6a,6b,9,9,13a-heptamethyl-15-(1H-pyrazol-4-yl)-2,3,4,4a,5,6,6a,6b,7,8,8a,9,11,13,13a,13b,14,15b-octadecahydro-1 H-chryseno[1,2-f]indazole-4a-carboxylic acid], the IC85 in the assay on P. aeruginosa was 1 µg/mL (≈ 1.79 µM); in the assay with E. coli it was greater than 2 µg/mL.

Turning to `Cn1cc(C2=C3[C@@H]4CC(C)(C)CC[C@]4(C(=O)O)CC[C@@]3(C)[C@]3(C)CC[C@H]4C(C)(C)c5n[nH]c(N)c5C[C@]4(C)C3C2)cn1` (stereo partly drawn) [Compound 28, (4aS,6aS,6bR,8aR,13aR,15bS)-12-Amino-2,2,6a,6b,9,9,13a-heptamethyl-15-(1-methyl-1H-pyrazol-4-yl)-2,3,4,4a,5,6,6a,6b,7,8,8a,9,11,13,13a,13b,14,15b-octadecahydro-1H-chryseno[1,2-f]indazole-4a-carboxylic acid], the results for the IC85 in the assay on P. aeruginosa and with E. coli were 1 µg/mL (≈ 1.74 µM) and 2 µg/mL (≈ 3.49 µM), respectively.

On to `CC1(C)CC[C@]2(C(=O)O)CC[C@]3(C)C(=C(c4ccncc4)CC4[C@@]5(C)Cc6c(n[nH]c6N)C(C)(C)[C@@H]5CC[C@]43C)[C@@H]2C1` (stereo partly drawn) [Compound 29, (4aS,6aS,6bR,8aR,13aR,15bS)-12-Amino-2,2,6a,6b,9,9,13a-heptamethyl-15-(pyridin-4-yl)-2,3,4,4a,5,6,6a,6b,7,8,8a,9,11,13,13a,13b,14,15b-octadecahydro-1H-chryseno[1,2-f]indazole-4a-carboxylic acid], for which the IC85 in the assay with P. aeruginosa and in the assay on E. coli was 1 µg/mL (≈ 1.75 µM) throughout.

`CC1(C)CC[C@]2(C(=O)O)CC[C@]3(C)C(=C(c4cncnc4)CC4[C@@]5(C)Cc6c(n[nH]c6N)C(C)(C)[C@@H]5CC[C@]43C)[C@@H]2C1` (stereo partly drawn) [Compound 30, (4aS,6aS,6bR,8aR,13aR,15bS)-12-Amino-2,2,6a,6b,9,9,13a-heptamethyl-15-(pyrimidin-5-yl)-2,3,4,4a,5,6,6a,6b,7,8,8a,9,11,13,13a,13b,14,15b-octadecahydro-1H-chryseno[1,2-f]indazole-4a-carboxylic acid]: the IC85 was found to be 2 µg/mL (≈ 3.5 µM) in the assay with P. aeruginosa and 1 µg/mL (≈ 1.75 µM) in the assay on E. coli.

For `CC1(C)CC[C@]2(C(=O)O)CC[C@]3(C)C(=C(c4ccc(N)c(F)c4)CC4[C@@]5(C)Cc6c(n[nH]c6N)C(C)(C)C5CC[C@]43C)C2C1` (stereo partly drawn) [Compound 31, (4aS,6aS,6bR,13aR)-12-Amino-15-(4-amino-3-fluorophenyl)-2,2,6a,6b,9,9,13a-heptamethyl-2,3,4,4a,5,6,6a,6b,7,8,8a,9,11,13,13a,13b,14,15b-octadecahydro-1H-chryseno[1,2-f]indazole-4a-carboxylic acid], the figures for the IC85 in the assay with P. aeruginosa and with E. coli were 0.5 µg/mL (≈ 0.829 µM) and 1 µg/mL (≈ 1.66 µM), respectively.

In the case of `CC1(C)CC[C@]2(C(=O)O)CC[C@]3(C)C(=C(c4ccoc4CN4CCOCC4)CC4[C@@]5(C)Cc6c(n[nH]c6N)C(C)(C)[C@@H]5CC[C@]43C)[C@@H]2C1` (stereo partly drawn) [Compound 32, (4aS,6aS,6bR,8aR,13aR,15bS)-12-Amino-2,2,6a,6b,9,9,13a-heptamethyl-15-(2-(morpholinomethyl)furan-3-yl)-2,3,4,4a,5,6,6a,6b,7,8,8a,9,11,13,13a,13b,14,15b-octadecahydro-1H-chryseno[1,2-f]indazole-4a-carboxylic acid], the IC85 worked out at 0.5 µg/mL (≈ 0.759 µM) with P. aeruginosa and 1 µg/mL (≈ 1.52 µM) with E. coli.

For the compound `CC1(C)CC[C@]2(C(=O)O)CC[C@]3(C)C(=C(c4c[nH]cc4CN4CCOCC4)CC4[C@@]5(C)Cc6c(n[nH]c6N)C(C)(C)[C@@H]5CC[C@]43C)[C@@H]2C1` (stereo partly drawn) [Compound 33, (4aS,6aS,6bR,8aR,13aR,15bS)-12-Amino-2,2,6a,6b,9,9,13a-heptamethyl-15-(4-(morpholinomethyl)-1H-pyrrol-3-yl)-2,3,4,4a,5,6,6a,6b,7,8,8a,9,11,13,13a,13b,14,15b-octadecahydro-1H-chryseno[1,2-f]indazole-4a-carboxylic acid], the IC85 with P. aeruginosa was 2 µg/mL (≈ 3.04 µM); with E. coli, 4 µg/mL (≈ 6.08 µM).

Turning to `CC1(C)CC[C@]2(C(=O)O)CC[C@]3(C)C(=C(c4ccsc4CN4CCOCC4)CC4[C@@]5(C)Cc6c(n[nH]c6N)C(C)(C)C5CC[C@]43C)C2C1` (stereo partly drawn) [Compound 34, (4aS,6aS,6bR,13aR)-12-Amino-2,2,6a,6b,9,9,13a-heptamethyl-15-(2-(morpholinomethyl)thiophen-3-yl)-2,3,4,4a,5,6,6a,6b,7,8,8a,9,11,13,13a,13b,14,15b-octadecahydro-1H-chryseno[1,2-f]indazole-4a-carboxylic acid], the IC85 in the assay with P. aeruginosa and in the assay with E. coli was 1 µg/mL (≈ 1.48 µM) in each case.

In the case of `CC1(C)CC[C@]2(C(=O)O)CC[C@]3(C)C(=C(c4ccoc4CN4CCNCC4)CC4[C@@]5(C)Cc6c(n[nH]c6N)C(C)(C)[C@@H]5CC[C@]43C)[C@@H]2C1` (stereo partly drawn) [Compound 35, (4aS,6aS,6bR,8aR,13aR,15bS)-12-Amino-2,2,6a,6b,9,9,13a-heptamethyl-15-(2-(piperazin-1-ylmethyl)furan-3-yl)-2,3,4,4a,5,6,6a,6b,7,8,8a,9,11,13,13a,13b,14,15b-octadecahydro-1H-chryseno[1,2-f]indazole-4a-carboxylic acid], the figures for the IC85 in the assay with P. aeruginosa and with E. coli were greater than 1 µg/mL and 1 µg/mL (≈ 1.52 µM), respectively.

In the case of `CN1CCN(Cc2occc2C2=C3[C@@H]4CC(C)(C)CC[C@]4(C(=O)O)CC[C@@]3(C)[C@]3(C)CC[C@H]4C(C)(C)c5n[nH]c(N)c5C[C@]4(C)C3C2)CC1` (stereo partly drawn) [Compound 36, (4aS,6aS,6bR,8aR,13aR,15bS)-12-Amino-2,2,6a,6b,9,9,13a-heptamethyl-15-(2-((4-methylpiperazin-1-yl)methyl)furan-3-yl)-2,3,4,4a,5,6,6a,6b,7,8,8a,9,11,13,13a,13b,14,15b-octadecahydro-1H-chryseno[1,2-f]indazole-4a-carboxylic acid], the IC85 in the assay on P. aeruginosa was greater than 1 µg/mL; with E. coli, 2 µg/mL (≈ 2.98 µM).

Consider `CC1(C)CC[C@]2(C(=O)O)CC[C@]3(C)C(=C(c4ccoc4CN4CCCC4)CC4[C@@]5(C)Cc6c(n[nH]c6N)C(C)(C)C5CC[C@]43C)C2C1` (stereo partly drawn) [Compound 37, (4aS,6aS,6bR,13aR)-12-Amino-2,2,6a,6b,9,9,13a-heptamethyl-15-(2-(pyrrolidin-1-ylmethyl)furan-3-yl)-2,3,4,4a,5,6,6a,6b,7,8,8a,9,11,13,13a,13b,14,15b-octadecahydro-1H-chryseno[1,2-f]indazole-4a-carboxylic acid], for which the IC85 was greater than 1 µg/mL in the assay with P. aeruginosa and 1 µg/mL (≈ 1.56 µM) in the assay on E. coli.

With `CC1(C)CC[C@]2(C(=O)O)CC[C@]3(C)C(=C(c4coc(CN5CCCC5)c4)CC4[C@@]5(C)Cc6c(n[nH]c6N)C(C)(C)C5CC[C@]43C)C2C1` (stereo partly drawn) [Compound 38, (4aS,6aS,6bR,13aR)-12-Amino-2,2,6a,6b,9,9,13a-heptamethyl-15-(5-(pyrrolidin-1-ylmethyl)furan-3-yl)-2,3,4,4a,5,6,6a,6b,7,8,8a,9,11,13,13a,13b,14,15b-octadecahydro-1H-chryseno[1,2-f]indazole-4a-carboxylic acid], the IC85 in the assay on P. aeruginosa came out at 1 µg/mL (≈ 1.56 µM); in the assay with E. coli it was 2 µg/mL (≈ 3.11 µM).

Consider `CC1(C)CC[C@]2(C(=O)O)CC[C@]3(C)C(=C(c4coc(CN5CCNCC5)c4)CC4[C@@]5(C)Cc6c(n[nH]c6N)C(C)(C)C5CC[C@]43C)C2C1` (stereo partly drawn) [Compound 39, (4aS,6aS,6bR,13aR)-12-Amino-2,2,6a,6b,9,9,13a-heptamethyl-15-(5-(piperazin-1-ylmethyl)furan-3-yl)-2,3,4,4a,5,6,6a,6b,7,8,8a,9,11,13,13a,13b,14,15b-octadecahydro-1H-chryseno[1,2-f]indazole-4a-carboxylic acid], for which the IC85 with P. aeruginosa came out at 1 µg/mL (≈ 1.52 µM); in the assay with E. coli it was 2 µg/mL (≈ 3.04 µM).

Source of the values: EP2712863B1, “Novel inhibitors of bacterial biofilms and related methods” (Sequoia Sciences, Inc., priority 2012, dated 2014).
